Legend:
[1] = Prodrug stability in mouse plasma; format: in vitro ADME; settings: for remaining after 1 h (mouse plasma): ester cleaved; for half-life: read-out: T1/2 (mouse plasma)
[2] = Prodrug stability in human plasma; format: in vitro ADME; settings: for half-life: read-out: T1/2 (human plasma)
ARPE-19 cells [3] = assay: Outer blood retinal barrier: ARPE-19 monolayer permeability to FITC-dextran; format: cell-based, human
Source text: (§1) The mechanisms of actions involved in the anti-permeability effect of the tested treatments were explored by assessing permeability to fluorescent dextran and proinflammatory cytokines production using their mRNA expression levels by RT-PCR.
(§2) Outer Blood Retinal Barrier conditions: human retinal pigment epithelial cells (RPE) cultures ARPE-19, a spontaneously immortalised human RPE cell line were obtained from American Type Culture Collection (Manassas, Va., USA). ARPE-19 cells and they were cultured in euglycaemic conditions (D-glucose (D-Glc), 5.5 mmol/L) and hyperglycaemic conditions (D-glucose, 25 mmol/L) for 18 days at 37° C. under 5% (vol./vol.) CO2 in medium (DMEM/F12) supplemented with 10% (vol./vol.) FBS (Hyclone; Thermo Fisher Scientific, UT, USA) and 1% (vol./vol.) penicillin/streptomycin (Hyclone; Thermo Fisher Scientific). ARPE-19 cells from passage 20 were used and the medium changed every 3-4 days. For permeability studies, ARPE-19 cells were seeded at 400,000 cells/ml (80,000 RPE cells/well) in 0.33 cm^2 HTS-Transwells (Costar; Corning, N.Y., USA). For real-time PCR, western blot analysis and immunofluorescence cells are seeded at 20,000 cells/ml.
(§3) Experimental conditions and treatments: apart from the euglycemic condition, eighteen different conditions were tested in cells cultured under 25 mmol/L D-glucose:
Condition 2) Cells are treated with diabetic milieu 25 mM D-Glucose+vehicle (days 15, 16 and 17 at one application/day) in order to evaluate their effect in preventing the cell damage provoked by the diabetic milieu.
Condition 9) Cells were treated with 25 mM D-Glucose and bevacizumab (0.2 mg/ml) for 72 h (days 15, 16 and 17 at one application/day) to evaluate their potential cytotoxic effects.
Condition 10)=Diabetic milieu; cells were treated with 25 mM D-Glucose+[…] (10 ng/ml)+TNF-α (25 ng/ml)+VEGF (25 ng/ml), for 48 h (days 16 and 17 at one application/day) in order to provoke the disruption of the monolayer.
Condition 17) Cells are treated with diabetic milieu (25 mM D-Glucose+IL-1β (10 ng/ml)+TNF-α (25 ng/ml)+VEGF (25 ng/ml))+bevacizumab (0.2 mg/mL) (days 15, 16 and 17 at one application/day) in order to evaluate their effect in preventing the cell damage provoked by the diabetic milieu.
Measurement of ARPE-19 permeability: The permeability of RPE cells was determined at 18 days by measuring the apical-to basolateral movements of FITC-dextran (40 kDa) (Sigma, St Louis, […]., USA) following a procedure previously reported by Villarroel et al. Exp Eye Res, 2009, 89, 913-920.

[4] = tested on: human retinal endothelial cells (HRECs); assay: Inner blood retinal barrier: HREC monolayer permeability to FITC-dextran; format: cell-based
Source text: as §1
Inner Blood Retinal Barrier conditions: primary human retinal endothelial cells (HRECs) were obtained from a vial of cryopreserved cells purchased from Innoprot (Vizcay, Spain). These cells were isolated from human retinal tissue of cadaveric eyes digested with 0.1 mg/mL collagenase type I at 37° C. for 1 hour. Then, endothelial cells were finally selected with CD31 antibody-coated magnetic beads (DynaBeads; Dynal, Oslo, Norway). HRECs were thawed in the laboratory and cultured in endothelial basal medium (EBM) containing, 5.5 mM D-glucose, 5% FBS (Fetal Bovine Serum), 100 U/mL penicillin, 100 μg/mL streptomycin, and ECG (Endothelial Cell Growth Supplement) supplement (Innoprot, Vizcay, Spain). Human fibronectin (MerckMillipore, Madrid, Spain) at 5 μg/mL was used for cell attachment. Cells at passages 2-3 will be used for the experiments. For experimentation, HRECs were grown to confluence and then cell culture media was changed to medium supplemented with 1% FBS for 24 h and then exposed to different treatments.
Conditions treatments: The same conditions specified for the experiment in ARPE-19 cells were used.
Measurement of HREC permeability: Permeability in HREC monolayers were obtained on permeable supports at 12×10^5 cells/well (24 wells, PCF filters, Merk Millipore). Inserts were incubated for 48 hours at 37° C. in 5% CO2-air to form the monolayer. At the end, medium was serum depleted 24 h before to proceed with the treatments. The lower chamber was filled with 600 μL of complete EBM medium and the upper chamber with 100 μL of cell suspension in serum depleted (1%).
To detect changes in the permeability, 100 μg/ml of fluorescent FITC-DEXTRAN (Sigma, Madrid, Spain), was added to the upper side of the insert. Aliquots of 200 μL from the basal compartment was read in a SpectraMax Gemini (Molecular Devices, Sunnyvale, Calif.) at a wavelength of excitation/emission 485/528 nm every 30 min. Finally, the concentration of dextran was determined by extrapolation of the fluorescence reads in a standard curve. Each condition was tested in triplicate.

ARPE-19 cells [5] = assay: ROS and cytokine/VEGF mRNA production by ARPE-19 monolayer cells in non-diabetic and diabetic milieu; format: cell-based, human; settings: ARPE19 monolayer, 0.2 mg/mL; for ROS: ROS % to 25 mM D-Glucose; for IL-1β R.Q. mRNA / IL-6 R.Q. mRNA / IL-18 R.Q. mRNA / TNFα R.Q. mRNA / VEGF R.Q. mRNA: relative change vs 25 mM D-Gluc
Method: as §2, §3
• Proinflammatory cytokines were evaluated in ARPE-19 cells by RT-PCR and mRNA for IL-6, TNF-α, IL-1β, IL-18, VEGF, IL-10, FGF were measured using the double delta CT method 2-ΔΔCT with Cts values for the gene of interest and the endogenous human B-actin to obtain ΔCT; mRNA values were expressed as relative change with respect to the condition 25 mM D-Gluc. (ref: Livak K J, Analysis of Relative Gene Expression Data Using Real-Time Quantitative PCR and the 2-ΔΔCT Method, Methods, 2001, 25(4), 402-408, doi 10.1006/meth.2001.1262) • ROS production was evaluated using Cell Biolabs' OxiSelect™ Intracellular ROS Assay (Green Fluorescence) (Bionova, Madrid, Spain). The assay employs the cell-permeable fluorogenic probe 2′, 7′-Dichlorodihydrofluorescin diacetate (DCFH-DA), oxidized to highly fluorescent 2′, 7′-Dichlorodihydrofluorescein (DCF) by cellular ROS. • Endothelin-1, PDGF and VCAM-1 expression was analyzed in HREC monolayers by immunohistochemical analysis and by RT-PCR. • TJ expression (ZO) is analyzed in ARPE-19 and HREC monolayers by immunohistochemical analysis.

[6] = diabetic milieu (25 mM D-Gluc + VEGF, TNF-α, IL-1β)

In the case of `CC(OC(=O)c1cc(O)cc(CS(=O)(=O)Cc2cc(O)cc(C(=O)O)c2O)c1O)OC(=O)C(C)(C)C` (stereo not shown) [IVc-059a-pive1, 3-[[3-[1-(2,2-Dimethylpropanoyloxy)ethoxycarbonyl]-2,5-dihydroxy-phenyl]methylsulfonyl-methyl]-2,5-dihydroxy-benzoic acid], the “Stability in mouse plasma (in words)” value [1] is reported as “Hydrolyzed Rapidly”.

In the case of `CC(OC(=O)c1cc(NC(=O)c2cc(O)c(C(=O)Nc3ccc(O)c(C(=O)O)c3)cc2O)ccc1O)OC(=O)C(C)(C)C` (stereo not shown) [Ic-007a-pive1, 5-[[4-[[3-[1-(2,2-dimethylpropanoyloxy)ethoxycarbonyl]-4-hydroxy-phenyl]carbamoyl]-2,5-dihydroxy-benzoyl]amino]-2-hydroxy-benzoic acid], the “remaining after 1 h (mouse plasma)” value [1] is reported as 49%, the half-life [1] is reported as 44.6 min and the half-life [2] is reported as over 180 min.

In the case of `O=C(O)c1cc(O)cc(CS(=O)(=O)Cc2cc(O)cc(C(=O)OCCN3CCOCC3)c2O)c1O` [IVc-059a-mpe1, 2,5-Dihydroxy-3-[[2,5-hydroxy-3-(2-morpholinoethoxycarbonyl)phenyl]methylsulfonyl-methyl]benzoic acid], the “Stability in mouse plasma (in words)” value [1] is reported as “stable up to 60 min”.

In the case of `CC(OC(=O)c1cc(NC(=O)c2cc(O)c(C(=O)Nc3ccc(O)c(C(=O)OC(C)OC(=O)C(C)(C)C)c3)cc2O)ccc1O)OC(=O)C(C)(C)C` (stereo not shown) [Ic-007a-pive2, 1-(2,2-dimethylpropanoyloxy)ethyl 5-[[4-[[3-[1-(2,2-dimethylpropanoyloxy)ethoxycarbonyl]-4-hydroxy-phenyl]carbamoyl]-2,5-dihydroxy-benzoyl]amino]-2-hydroxybenzoate], the “remaining after 1 h (mouse plasma)” value [1] is reported as 65%, the half-life [1] is reported as 62.2 min and the half-life [2] is reported as over 180 min.

For `CC(OC(=O)c1cc(O)cc(CS(=O)(=O)Cc2cc(O)cc(C(=O)OC(C)OC(=O)C(C)(C)C)c2O)c1O)OC(=O)C(C)(C)C` (stereo not shown) [IVc-059a-pive2, 3-[[3-[1-(2,2-Dimethylpropanoyloxy)ethoxycarbonyl]-2,5-dihydroxy-phenyl]methyl-sulfonyl-methyl]-2,5-dihydroxy-benzoic acid 1-(2,2-dimethylpropanoyloxy)ethyl ester], the “Stability in mouse plasma (in words)” value [1] was “hydrolyzed rapidly” and the “Stability in human plasma (in words)” value [2] was “hydrolyzed rapidly”.

For “bevacizumab: comparator in ARPE-19 and HREC permeability experiments [reference compound]”, the “% permeability ARPE19” value (ARPE-19 cells [3]; No 9: 25 mM D-Gluc + 0.2 mg/mL) was 109.5 ± 22.9%, the “% permeability ARPE19” value (ARPE-19 cells [3]; No 17: 25 mM D-Gluc + 0.2 mg/mL + VEGF, TNF-α, (diabetic milieu)) was 120.7 ± 30.1% and the “% permeability HREC” value ([4]; No 9: 25 mM D-Gluc + 0.2 mg/mL) was 127.1 ± 26.2%. For the same compound, the “% permeability HREC” value ([4]; No 17: 25 mM D-Gluc + 0.2 mg/mL + VEGF, TNF-α, IL-β (diabetic milieu)) was 129.0 ± 35.3%, the ROS (ARPE-19 cells [5]; 25 mM D-Gluc) was 110 ± 54% and the “IL-1β R.Q. mRNA” value (ARPE-19 cells [5]; 25 mM D-Gluc) was 1.46 ± 0.72 R.Q. For the same compound, the “IL-6 R.Q. mRNA” value (ARPE-19 cells [5]; 25 mM D-Gluc) was 0.64 ± 0.34 R.Q, the “IL-18 R.Q. mRNA” value (ARPE-19 cells [5]; 25 mM D-Gluc) was 0.09 ± 0.01 R.Q and the “TNFα R.Q. mRNA” value (ARPE-19 cells [5]; 25 mM D-Gluc) was 0.46 ± 0.63 R.Q. The “VEGF R.Q. mRNA” value (ARPE-19 cells [5]; 25 mM D-Gluc) was 1.68 ± 0.83 R.Q, the ROS (ARPE-19 cells [5]; [6]) was 111 ± 50% and the “IL-1β R.Q. mRNA” value (ARPE-19 cells [5]; [6]) was 31.22 ± 12.65 R.Q. For the same compound, the “IL-6 R.Q. mRNA” value (ARPE-19 cells [5]; [6]) was 32.35 ± 13.48 R.Q, the “IL-18 R.Q. mRNA” value (ARPE-19 cells [5]; [6]) was 0.53 ± 0.04 R.Q and the “TNFα R.Q. mRNA” value (ARPE-19 cells [5]; [6]) was 1.37 ± 0.27 R.Q. The “VEGF R.Q. mRNA” value (ARPE-19 cells [5]; [6]) was 3.88 ± 0.68 R.Q.

In the case of `CC(C)(C)C(=O)OCOC(=O)c1cc(O)cc(CS(=O)(=O)Cc2cc(O)cc(C(=O)OCOC(=O)C(C)(C)C)c2O)c1O` [IVc-059a-pivm2, 2,2-Dimethylpropanoyloxymethyl 2,5-dihydroxy-3-[[2,5-dihydroxy-3-(2,2-dimethyl-propanoyloxymethoxycarbonyl)phenyl]methylsulfonylmethyl]benzoate], the “Stability in mouse plasma (in words)” value [1] is reported as “hydrolyzed rapidly”, the half-life [1] is reported as 14.1 min and the half-life [2] is reported as over 180 min.

For `O=C(OCCN1CCOCC1)c1cc(O)cc(CS(=O)(=O)Cc2cc(O)cc(C(=O)OCCN3CCOCC3)c2O)c1O` [IVc-059a-mpe2, 2,5-Dihydroxy-3-[[2,5-hydroxy-3-(2-morpholinoethoxycarbonyl)phenyl]methylsulfonyl-methyl]benzoic acid 2-morpholinoethyl ester], the “Stability in mouse plasma (in words)” value [1] was “stable up to 60 min” and the “T1/2 (human plasma)” value [2] was over 180 min.

In the case of `CC(C)(C)C(=O)OCOC(=O)c1cc(O)cc(CS(=O)(=O)Cc2cc(O)cc(C(=O)O)c2O)c1O` [IVc-059a-pivm1, 2,5-Dihydroxy-3-[[2,5-dihydroxy-3-(2,2-dimethylpropanoyloxymethoxycarbonyl)phenyl]methyl-sulfonylmethyl]benzoic acid], the “Stability in mouse plasma (in words)” value [1] is reported as “hydrolyzed rapidly”, the half-life [1] is reported as 6.7 min and the half-life [2] is reported as over 180 min.

Source: patent publication US20230150951A1, “2,5- OR 2,6-DISUBSTITUTED HYDROQUINONE DERIVATIVES WITH AT LEAST ONE CARBOXY, SULFO OR AMIDO GROUP USEFUL AS MEDICAMENTS” (OM PHARMA SA, priority 2020, published 2023)
